Test results taken from patent US9861099B2, “Composition for enhancing plant disease control effect of monosaccharide” (MITSUI CHEMICALS AGRO, INC., priority 2013, dated 2018).

What was measured:
Format in all cases: in vivo
Puccinia recondita = experiment: Wheat brown rust (WR) control test
Phytophthora infestans = conditions: Test Example 10, D-tagatose only, treatment concentration 5%
Pythium ultimum = experiment: Cabbage damping-off, soil irrigation treatment; conditions: formula containing D-tagatose only, 80-fold dilution (D-tagatose 1%)
Protocol: The effects of the D-tagatose water-soluble powders containing anionic surfactant prepared in Example 11 on […] were evaluated. Test soil was inoculated by contacting with Pythium ultimum preliminarily cultured in wheat bran medium followed by planting the test plants (cabbage variety: Shikidori) therein. The soil was treated by irrigating at 3 L/m^2 with the formulations which had been 80-fold diluted with well water (treatment concentrations: D-tagatose 1%+assistant 0.25%). […] Effects were evaluated using the same evaluation method as Test Example 1. The protective value with respect to cabbage damping-off of a formula containing D-tagatose only was 29.9.

Plasmopara viticola = experiment: Grape vine downy mildew (VDM) control test; conditions: for control effect against grape vine downy mildew: Test Example 10, D-tagatose only
Pythium aphanidermatum = experiment: Pythium red blight of bentgrass, soil irrigation treatment; conditions: Comparative Example, main agent only (D-tagatose 80 parts), no assistant; 100-fold dilution, soil irrigation 3 L/m^2; five days after inoculation
Protocol: The effects of the D-tagatose water-soluble powders containing anionic surfactant prepared in Example 11 on grass red blight were evaluated. Test plants (grass variety: Bentgrass) were planted, and three weeks later, cut to a height of 1 cm prior to use in the test. In the test, after inoculating the seedlings with Pythium aphanidermatum preliminarily cultured in wheat bran medium, dilutions obtained by diluting each formula 100-fold with well water were used to treat soil by irrigating at 3 L/m^2 (treatment concentrations: D-tagatose 0.8%+assistant 0.2%). After investigating the onset of disease five days after inoculation, control values were calculated from the diseased area. Effects were evaluated using the same evaluation method as Test Example 10.

Venturia inaequalis = experiment: Apple scab (AS) control test; conditions: Test Example 10, D-tagatose only, treatment concentration 5%
Protocol: (AS: Apple Scab) Test plants (apple variety: Ohrin) were planted followed by cultivating until four first leaves appeared. In the test, dilutions (5 ml/pot) obtained by diluting with distilled water so that each formula reached a prescribed concentration were sprayed. After inoculating the seedlings one day after spraying by spraying with 1×10^5 organisms/ml of conidia of Venturia inaequalis, the seedlings were allowed to stand for about 24 hours in an inoculation room at a room temperature of 18° C. to 20° C. to promote the onset of disease. Disease development was investigated 10 days after inoculation, and the effects thereof were evaluated. Disease development was evaluated using the following indicators for disease control tests evaluated according to the methods described above. Furthermore, preventive values were calculated based on the disease development.

[1] = tested on: Blumeria graminis f sp. hordei; experiment: Barley powdery mildew (BPM) control test; conditions: Test Example 10, D-tagatose only
Protocol: (BPM: Barley Powdery Mildew) Test plants (barley variety: Sekishinryoku) were planted followed by cultivating until the second leaf appeared. In the test, dilutions (5 ml/pot) obtained by diluting with distilled water so that each formula reached a prescribed concentration were sprayed. After inoculating the seedlings one day after spraying by shaking off conidia of Blumeria graminis f sp. hordei onto the seedlings, disease development was investigated 7 days after, and the effects thereof were evaluated. Disease development was evaluated using the following indicators for disease control tests evaluated according to the methods described above. Furthermore, preventive values were calculated based on the disease development.

Phakopsora ampelopsidis = experiment: Grape vine rust (VR) control test; conditions: Test Example 10, D-tagatose only, treatment concentration 5%
Protocol: (VR: Vine Rust) Test plants (grape variety: Neomuscat) were planted followed by cultivating until three to four first leaves appeared. In the test, dilutions (5 ml/pot) obtained by diluting with distilled water so that each formula reached a prescribed concentration were sprayed. After inoculating the seedlings one day after spraying by spraying with 1×10^7 organisms/ml of uredospores of Phakopsora ampelopsidis, the seedlings were allowed to stand for about 24 hours in an inoculation room at a room temperature of 20° C. to 23° C. to promote the onset of disease. Disease development was investigated 12 days after inoculation, and the effects thereof were evaluated. Disease development was evaluated using the following indicators for disease control tests evaluated according to the methods described above. Furthermore, preventive values were calculated based on the disease development.

Sphaerotheca cucurbitae = experiment: Cucumber powdery mildew (CPM) control test; conditions: for control effect against cucumber powdery mildew: Test Example 10, D-tagatose only
[2] = tested on: Colletotrichum orbiculare; experiment: Cucumber anthracnose (CA) control test; conditions: Test Example 10, D-tagatose only, treatment concentration 5%
Protocol: (CA: Cucumber Anthracnose) Test plants (cucumber variety: Sagami Hanjiro) were planted followed by cultivating until the first leaf appeared. In the test, dilutions (5 ml/pot) obtained by diluting with distilled water so that each formula reached a prescribed concentration were sprayed. After inoculating the seedlings one day after spraying by spraying with 1×10^7 organisms/ml of conidia of Colletotrichum orbiculare, the seedlings were allowed to stand for about 24 hours in an inoculation room at a room temperature of 20° C. to 23° C. to promote the onset of disease. Disease development was investigated 10 days after inoculation, and the effects thereof were evaluated. Disease development was evaluated using the following indicators for disease control tests evaluated according to the methods described above. Furthermore, preventive values were calculated based on the disease development.

[3] = tested on: Pseudoperonospora cubensis; experiment: Cucumber downy mildew (CDM) control test; conditions: for control effect against cucumber downy mildew: Test Example 10, D-tagatose only
Septoria tritici = experiment: Wheat septoria leaf blotch (SLB) control test; conditions: Test Example 10, D-tagatose only, treatment concentration 5%
Protocol: (SLB: Septoria Leaf Blotch) Test plants (wheat variety: Norin 61) were planted followed by cultivating until the second leaf appeared. In the test, dilutions (5 ml/pot) obtained by diluting with distilled water so that each formula reached a prescribed concentration were sprayed. After inoculating the seedlings one day after spraying by spraying with 1×10^7 organisms/ml of conidia of Septoria tritici, the seedlings were allowed to stand for about 24 hours in an inoculation room at a room temperature of 18° C. to promote the onset of disease. Disease development was investigated 14 days after inoculation, and the effects thereof were evaluated. Disease development was evaluated using the following indicators for disease control tests evaluated according to the methods described above. Furthermore, preventive values were calculated based on the disease development.

Phakopsora pachyrhizi = experiment: Soybean rust (SR) control test; conditions: Test Example 10, D-tagatose only, treatment concentration 5%
Botrytis cinerea = experiment: Tomato gray mold (GM) control test; conditions: Test Example 10, D-tagatose only, treatment concentration 5%
Protocol: (GM: Gray Mold) Test plants (tomato variety: Oogata Fukuju) were planted followed by cultivating until three first leaves appeared. In the test, dilutions (5 ml/pot) obtained by diluting with distilled water so that each formula reached a prescribed concentration were sprayed. After inoculating the seedlings one day after spraying by spraying with 1×10^7 organisms/ml of conidia of Botrytis cinerea, the seedlings were allowed to stand for about 48 hours in an inoculation room at a room temperature of 20° C. to 23° C. to promote the onset of disease. Disease development was investigated 2 days after inoculation, and the effects thereof were evaluated. Disease development was evaluated using the following indicators for disease control tests evaluated according to the methods described above. Furthermore, preventive values were calculated based on the disease development.

Magnaporthe grisea = conditions: Test Example 10, D-tagatose only, treatment concentration 5%
[4] = formula containing D-tagatose only, treatment concentration 0.8%
[5] = Test Example 12, D-tagatose 5 parts + Assistant 1 5 parts, 10-fold dilution (D-tagatose 0.5% + Assistant 1 0.5%)

## O=C(CO)[C@@H](O)[C@@H](O)[C@H](O)CO [D-tagatose, reference compound]
Puccinia recondita; Test Example 10, D-tagatose only, treatment concentration 5%
  effects against wheat rust: not adequate
Puccinia recondita; [4]
  preventive value, wheat rash: about 5 (0 to 10)
Phytophthora infestans
  effects against tomato late blight: not adequate
Pythium ultimum
  protective value, cabbage damping-off: 29.9
Plasmopara viticola; treatment concentration 0.8%
  control effect against grape vine downy mildew: not adequate
Plasmopara viticola; treatment concentration 5%
  control effect against grape vine downy mildew: high control effect
Plasmopara viticola; [5]
  Protective Value Index VDM, Assistant 1: 1 (Preventive value of 30 to less than 60)
Plasmopara viticola; [4]
  preventive value, grape vine downy mildew: about 40 (30 to 50)
Pythium aphanidermatum
  Preventive Value Indices, bentgrass red blight: 1 (Preventive value of 30 to less than 60)
Venturia inaequalis
  effects against apple scab: not adequate
[1]; treatment concentration 0.8%
  control effect against barley powdery mildew: not adequate
[1]; treatment concentration 5%
  control effect against barley powdery mildew: high control effect
Phakopsora ampelopsidis
  effects against grape vine rust: not adequate
Sphaerotheca cucurbitae; treatment concentration 0.8%
  control effect against cucumber powdery mildew: not adequate
Sphaerotheca cucurbitae; treatment concentration 5%
  control effect against cucumber powdery mildew: high control effect
Sphaerotheca cucurbitae; [5]
  Protective Value Index CPM, Assistant 1: 2 (Preventive value of 60 to less than 80)
Sphaerotheca cucurbitae; [4]
  preventive value, cucumber powdery mildew: about 50 (40 to 60)
[2]
  effects against cucumber anthracnose: not adequate
[3]; treatment concentration 0.8%
  control effect against cucumber downy mildew: not adequate
[3]; treatment concentration 5%
  control effect against cucumber downy mildew: high control effect
[3]; [5]
  Protective Value Index CDM, Assistant 1: 2 (Preventive value of 60 to less than 80)
[3]; formula containing D-tagatose only, treatment concentration 0.4%
  preventive value, cucumber downy mildew: about 50 (40 to 60)
Septoria tritici
  effects against wheat speckled leaf blotch: not adequate
Phakopsora pachyrhizi
  effects against soybean rust: not adequate
Botrytis cinerea
  effects against tomato gray mold: not adequate
Magnaporthe grisea
  effects against rice blast: not adequate
